The values below are quoted from earlier work in US20070027110A1, “Double salts of (-)-hydroxycitric acid with an amine and a group II a metal and a process for preparing the same” (priority 2004, published 2007).

For the data set the following is noted: free acid form, forming lactone; liquid form unstable during storage.

SMILES strings stand for the structures.

Turning to `O=C(O)CC(O)(C(=O)O)C(O)C(=O)O` (single isomer, unassigned; (-)) [(−)-hydroxycitric acid], the stability result was “unstable”.
